Data on 23 compounds can be found in ChEMBL document CHEMBL4024747, “Design, Synthesis, and Biological Activities of Vibsanin B Derivatives: A New Class of HSP90 C-Terminal Inhibitors” (J Med Chem, 2017).

Each structure is given as a SMILES string. Calls of active or inactive are those of the source. The rule behind the calls is not given here.

In general, IC50 refers to the concentration needed to halve the response being measured.

Common to all, as to format: functional, cell-based
Assay [1] has as its system SMMC-7721. Put plainly: Antiproliferative activity against human SMMC7721 cells assessed as reduction in cell viability after 48 hrs by MTT assay. Particulars: for IC50: SMMC-7721, 48 h.
In assay [2] the test system is A549. Description: Antiproliferative activity against human A549 cells assessed as reduction in cell viability after 48 hrs by MTT assay. Particulars: for IC50: A549, 48 h.
In assay [3] the test system is MCF7. Put plainly: Antiproliferative activity against human MCF7 cells assessed as reduction in cell viability after 48 hrs by MTT assay. The note with it: MCF7, 48 h.
Assay [4] concerns HL-60. Description: Antiproliferative activity against human HL60 cells assessed as reduction in cell viability after 48 hrs by MTT assay. The note with it: for IC50: HL-60, 48 h. A general note: Tetrazolium assays rely on reduction of a dye to a coloured formazan, in cell work by metabolically active cells.
For assay [5], the system named is SW480. Description: Antiproliferative activity against human SW480 cells assessed as reduction in cell viability after 48 hrs by MTT assay. Particulars: for IC50: SW480, 48 h.

For `CC(C)=CCC[C@]1(C)/C=C/[C@@H](OC(=O)C=C(C)C)[C@](C)(O)/C=C/C(=O)/C(Cn2cc(CO)nn2)=C\C1`, the 50% inhibitory concentration (IC50) came out at 3.56 µM in assay [1]; 3.47 µM in assay [2]; 2.93 µM in assay [3]; 3.2 µM in assay [4]; 2.87 µM in assay [5].
As to `CC(C)=CCC[C@]1(C)/C=C/[C@@H](OC(=O)C=C(C)C)[C@](C)(O)/C=C/[C@H](O)/C(CO)=C\C1`, the IC50 in assay [1] was more than 40 µM; in assay [2], more than 40 µM; in assay [3], 33 µM; in assay [4] it was more than 40 µM; in assay [5], more than 40 µM.
With `CC(C)=CCC[C@]1(C)/C=C/[C@@H](OC(=O)C=C(C)C)[C@](C)(O)/C=C/C(=O)/C(C(=O)N(C)C)=C\C1`, the IC50 in assay [1] was determined as 3.67 µM; in assay [2] it was 2.7 µM; in assay [3] it was 3.67 µM; in assay [4], 3.34 µM; in assay [5], 3.3 µM.
With `CC(C)=CCC[C@]1(C)/C=C/[C@@H](OC(=O)C=C(C)C)[C@](C)(O)/C=C/C(=O)/C(CN2CCOCC2)=C\C1`, the IC50 in assay [1] came to 1.14 µM; in assay [2], 0.66 µM; in assay [3], 0.52 µM; in assay [4], 1.11 µM; in assay [5], 0.77 µM.
With `CC(C)=CCC[C@]1(C)/C=C/[C@@H](OC(=O)C=C(C)C)[C@](C)(O)/C=C/C(O)/C(C=O)=C\C1` (stereo not given in full), the half-inhibitory concentration (IC50) came out at 0.73 µM in assay [1]; 0.57 µM in assay [2]; 2.32 µM in assay [3]; 0.24 µM in assay [4]; 1.43 µM in assay [5].
Turning to `CC(C)=CCC[C@](C)(/C=C/[C@@H](OC(=O)C=C(C)C)[C@](C)(O)/C=C/C(=O)/C=C/N1CCN(C)CC1)CC=O`, the IC50 is 3.09 µM in assay [1]; 2.66 µM in assay [2]; 8.84 µM in assay [3]; 1.06 µM in assay [4]; 12.4 µM in assay [5].
In the case of `CCCC(=O)O[C@@H]1/C=C/[C@@](C)(CCC=C(C)C)C/C=C(/CO)C(=O)/C=C/[C@@]1(C)O`, the IC50 in assay [1] was 7.81 µM; in assay [2], 4.1 µM; in assay [3], 6.04 µM; in assay [4] it was 4.18 µM; in assay [5] it was 2.51 µM.
Turning to `CO[C@@H]1/C=C/[C@@](C)(O)[C@H](OC(=O)C=C(C)C)/C=C/[C@@](C)(CCC=C(C)C)C/C=C\1CO`, the IC50 in assay [1] worked out at 38.8 µM; in assay [2], 11.2 µM; in assay [3], 33.3 µM; in assay [4], 13.8 µM; in assay [5], 12.8 µM.
Take `COCOC/C1=C/C[C@](C)(CCC=C(C)C)/C=C/[C@@H](OC(=O)C=C(C)C)[C@](C)(O)/C=C/C1=O`: the half-inhibitory concentration (IC50) in assay [1] amounted to 3.25 µM; in assay [2], 2.98 µM; in assay [3] it was 3.12 µM; in assay [4], 2.84 µM; in assay [5], 3.71 µM.
Regarding `CCN(CC)C/C1=C/C[C@](C)(CCC=C(C)C)/C=C/[C@@H](OC(=O)C=C(C)C)[C@](C)(O)/C=C/C1=O`, the 50% inhibitory concentration (IC50) was determined as 0.57 µM in assay [1]; 0.13 µM in assay [2]; 0.13 µM in assay [3]; 0.14 µM in assay [4]; 0.27 µM in assay [5].
For the compound `COC/C1=C/C[C@](C)(CCC=C(C)C)/C=C/[C@@H](OC(=O)C=C(C)C)[C@](C)(O)/C=C/C1=O`, the IC50 in assay [1] was 11 µM; in assay [2] it was 3.95 µM; in assay [3], 4.13 µM; in assay [4], 3.07 µM; in assay [5] it was 3.85 µM.
In the same order, the values of `COC/C1=C/C[C@](C)(CCC=C(C)C)/C=C/[C@@H](OC(=O)C=C(C)C)[C@](C)(OC)/C=C/C1=O` are 9.38 µM, 4.18 µM, 16.5 µM, 4.05 µM and 14.6 µM.
For the compound `CC(C)=CCC[C@]1(C)/C=C/[C@@H](OC(=O)C=C(C)C)[C@](C)(O)/C=C/C(=O)/C(C(=O)N2CCCC2)=C\C1`, the half-inhibitory concentration (IC50) in assay [1] was 14.9 µM; in assay [2], 13 µM; in assay [3], 17.2 µM; in assay [4], 12.3 µM; in assay [5], 15.1 µM.
Regarding `CC(C)=CCC[C@]1(C)/C=C/[C@@H](OC(=O)C=C(C)C)[C@](C)(O)/C=C/C(=O)/C(CO[Si](c2ccccc2)(c2ccccc2)C(C)(C)C)=C\C1`, the IC50 in assay [1] turned out to be 38 µM; in assay [2], 13 µM; in assay [3] it was 15.8 µM; in assay [4], 14.4 µM; in assay [5], 20.7 µM.
As for `CCN(CC)C(=O)/C1=C/C[C@](C)(CCC=C(C)C)/C=C/[C@@H](OC(=O)C=C(C)C)[C@](C)(O)/C=C/C1=O`, the concentration for half-maximal inhibition (IC50) was found to be 13.8 µM in assay [1]; 11.3 µM in assay [2]; 12.1 µM in assay [3]; 9.08 µM in assay [4]; 11.7 µM in assay [5].
In the case of `CC(C)=CCC[C@]1(C)/C=C/[C@@H](OC(=O)C=C(C)C)[C@](C)(O)/C=C/C(=O)/C(C(=O)N2CCOCC2)=C\C1`, the IC50 was 3.68 µM in assay [1]; 1.67 µM in assay [2]; 3.36 µM in assay [3]; 3.27 µM in assay [4]; 2.8 µM in assay [5].
Turning to `CC[Si](CC)(CC)OC/C1=C/C[C@](C)(CCC=C(C)C)/C=C/[C@@H](OC(=O)C=C(C)C)[C@](C)(O)/C=C/C1=O`, the IC50 in assay [1] is 3.46 µM; in assay [2], 3.1 µM; in assay [3] it was 3.15 µM; in assay [4], 2.81 µM; in assay [5] it was 2.69 µM.
`CO[C@H]1/C=C/[C@@](C)(O)[C@H](OC(=O)C=C(C)C)/C=C/[C@@](C)(CCC=C(C)C)C/C=C\1CO`: the IC50 turned out to be 38.1 µM in assay [1]; 19.2 µM in assay [2]; 18.5 µM in assay [3]; 14.8 µM in assay [4]; 16.6 µM in assay [5].
For `CC(=O)OC/C1=C/C[C@](C)(CCC=C(C)C)/C=C/[C@@H](OC(=O)C=C(C)C)[C@](C)(OC(C)=O)/C=C/C1=O`, the IC50 is 4.13 µM in assay [1]; 15.1 µM in assay [2]; 3.99 µM in assay [3]; 3.48 µM in assay [4]; 3.52 µM in assay [5].
With `COCO[C@@H]1/C=C/[C@@](C)(CCC=C(C)C)C/C=C(/CO)C(=O)/C=C/[C@@]1(C)O`, the IC50 in assay [1], in assay [2], in assay [3], in assay [4] and in assay [5] was more than 40 µM throughout.
Turning to `CC(C)=CCC[C@]1(C)/C=C/[C@@H](OC(=O)C=C(C)C)[C@](C)(O)/C=C/C(=O)/C(C(=O)N2CCN(C)CC2)=C\C1`, the IC50 in assay [1] was 11.7 µM; in assay [2] it was 8.44 µM; in assay [3] it was 6.3 µM; in assay [4], 5.47 µM; in assay [5], 4.52 µM.
For `CC(C)=CCC[C@]1(C)/C=C/[C@@H](OC(=O)C=C(C)C)[C@](C)(O)/C=C/C(=O)/C(C=O)=C\C1`, the result in assay [1], in assay [2], in assay [4] and in assay [5] was Active. Moreover, the IC50 in assay [3] turned out to be 12.6 µM.
For `CC(C)=CCC[C@](C)(/C=C/[C@@H](OC(=O)C=C(C)C)[C@](C)(O)/C=C/C(=O)/C=C/N(C)C)CC=O`, the IC50 in assay [1] came out at 10.2 µM; in assay [2] it was 11.2 µM; in assay [3], 12.2 µM; in assay [4], 4.69 µM; in assay [5] it was 10.3 µM.
